This is an account of results in article PMC7817688, “Identification of 3-chymotrypsin like protease (3CLPro) inhibitors as potential anti-SARS-CoV-2 agents” (Communications Biology, 2021).

Usually IC50 stands for the concentration that inhibits the measured activity by half. The term inhibition denotes the change of the read-out against control, counted positive when it falls.

The target of the assay is SARS-CoV-2 3CLpro enzyme (Severe acute respiratory syndrome coronavirus 2, UniProt P0DTD1). As to the kind of experiment: biochemical. The note with it: for percent enzymatic activity, individual values / percent enzymatic activity, AVG: DMSO treated control = 100%, data of Figs. 2-4; for percent enzymatic activity, AVG: mean of 3 values.
The mark [1] stands for this setting: dose-dependent study, 50 uM, individual values.

Several values for one entry are separate records, joined by “and”; a condition that tells them apart may be missing. Equal values may be shown once.

Turning to `CCOC(=O)c1ccc(OC(=O)CCCCCNC(=N)N)cc1` [Gabexate], where the note is “50 µM drug”, the “percent enzymatic activity, individual values” was 88.0184% and 104.147% and 90.7834%; the “percent enzymatic activity, AVG” value is reported as 94.3164%.

`CCC[C@@]1(CCc2ccccc2)CC(O)=C([C@H](CC)c2cccc(NS(=O)(=O)c3ccc(C(F)(F)F)cn3)c2)C(=O)O1` [Tipranavir]: the “percent enzymatic activity, individual values” (50 µM drug) is 30.4148% and 38.7097% and 37.3272%. The “percent enzymatic activity, AVG” value (50 µM drug) is 35.4839%. In addition, the “% activity” value by setting is: (dose-dependent study, 0.097656 uM, individual values) 82.4284% (2×) and 99.6504%; (dose-dependent study, 0.195313 uM, individual values) 93.9114% and 73.379% and 92.2647% and 99.6504%; (dose-dependent study, 0.390625 uM, individual values) 86.3629% and 90.6909% and 88.1724%; (dose-dependent study, 0.78125 uM, individual values) 90.2974% and 88.7236% and 98.607%; (dose-dependent study, 1.5625 uM, individual values) 116.346% and 88.7236% and 94.6254%; (dose-dependent study, 3.125 uM, individual values) 93.8385% and 93.4451% and 104.346%. In addition, the “% activity” value by setting is: (dose-dependent study, 6.25 uM, individual values) 117.389% and 86.7564% and 86.3629%; (dose-dependent study, 12.5 uM, individual values) 89.5105% and 88.3302% and 98.0853%; (dose-dependent study, 25 uM, individual values) 75.6509% and 84.3957% and 93.4451% and 63.6511%; under setting [1], 69.8379% and 61.9688% and 53.2165%; (dose-dependent study, 100 uM, individual values) 47.9992% and 60.395% and 69.8379% and 42.7819%. Further, the activity at 0.097656 µM (dose-dependent study, 0.097656 uM, individual values, read-out: % activity) worked out at 101%. The activity at 0.390625 µM (dose-dependent study, 0.390625 uM, individual values, read-out: % activity) turned out to be 104%. Also, the activity at 0.78125 µM (dose-dependent study, 0.78125 uM, individual values, read-out: % activity) worked out at 109%. Further, the activity at 3.125 µM (dose-dependent study, 3.125 uM, individual values, read-out: % activity) was found to be 110%. Further, the activity at 12.5 µM (dose-dependent study, 12.5 uM, individual values, read-out: % activity) stood at 107%. For the same molecule, the activity at 50 µM under setting [1] stood at 57.4%. Further, the IC50 (drugs 0 to 100 µM, 50 µM substrate, non-linear four variable fit, read-out: IC50 for SARS-CoV-2 3CL protease) was 27.7 µM. Moreover, the “inhibitory effect towards 3CLpro enzymatic activity (in words)” value (in vitro enzymatic assay at the tested doses) is “partial inhibitory effect”. For the same molecule, under “read-out: inhibition of 3CLpro enzymatic activity, 50 µM drug”, the inhibition at 50 µM turned out to be 64%. Further, the inhibition at 100 µM (read-out: inhibition of 3CLpro enzymatic activity, 100 µM drug) worked out at 50%.

For `Cc1c(O)cccc1C(=O)N[C@@H](CSc1ccccc1)[C@H](O)CN1C[C@H]2CCCC[C@H]2C[C@H]1C(=O)NC(C)(C)C` [Nelfinavir], the “percent enzymatic activity, individual values” (50 µM drug, listed as Nilfinavir) is 69.1244% and 72.3502% and 70.0461%. Moreover, the “percent enzymatic activity, AVG” value (50 µM drug) was found to be 70.5069%.

With `COC(=O)N[C@H](C(=O)N1CCC[C@H]1c1nc2cc([C@H]3CC[C@H](c4cc5nc([C@@H]6CCCN6C(=O)[C@@H](NC(=O)OC)[C@@H](C)OC)[nH]c5cc4F)N3c3cc(F)c(N4CCC(c5ccc(F)cc5)CC4)c(F)c3)c(F)cc2[nH]1)[C@@H](C)OC` [Pibrentasvir], for the setting “50 µM drug”, the “percent enzymatic activity, individual values” was 62.0438% and 66.4234% and 69.3431%; the “percent enzymatic activity, AVG” value was 65.9367%.

Consider `COc1cc2c(cc1Cc1cccc(Cl)c1F)c(=O)c(C(=O)O)cn2[C@H](CO)C(C)C` [Elvitegravir], for which, for the setting “50 µM drug”, the “percent enzymatic activity, individual values” is 78.3509% and 80.4458% and 91.3395%; the “percent enzymatic activity, AVG” value turned out to be 83.3787%.

`CCC(C)n1ncn(-c2ccc(N3CCN(c4ccc(OCC5COC(Cn6cncn6)(c6ccc(Cl)cc6Cl)O5)cc4)CC3)cc2)c1=O` (stereo not drawn) [Itraconazole]: for the setting “50 µM drug”, the “percent enzymatic activity, individual values” was 81.4131% and 90.2946% and 93.255%; the “percent enzymatic activity, AVG” value was determined as 88.3209%.

For the molecule Maraviroc, where the note is “50 µM drug”, the “percent enzymatic activity, individual values” is 91.5462% and 88.779% and 142.739%.

`Cc1cc(C#N)cc(C)c1Oc1nc(Nc2ccc(C#N)cc2)nc(N)c1Br` [Etravirine]: for the setting “50 µM drug”, the “percent enzymatic activity, individual values” was 85.8927% and 97.6243% and 93.0155%; the “percent enzymatic activity, AVG” value worked out at 92.1775%.

For `Cc1cc(CCCOc2c(C)cc(-c3noc(C(F)(F)F)n3)cc2C)on1` [Pleconaril], for the setting “50 µM drug”, the “percent enzymatic activity, individual values” was 89.2446% and 86.7306% and 85.4737%; the “percent enzymatic activity, AVG” value worked out at 87.1496%.

With `CN(C)C(=O)COC(=O)Cc1ccc(OC(=O)c2ccc(NC(=N)N)cc2)cc1` [Camostat], where the note is “50 µM drug”, the “percent enzymatic activity, individual values” was 94.4701% and 101.843% and 102.304%; the “percent enzymatic activity, AVG” value came out at 99.5392%.

On to `CC(C)OC(=O)[C@H](C)N[P@](=O)(OC[C@H]1O[C@@H](n2ccc(=O)[nH]c2=O)[C@](C)(F)[C@@H]1O)Oc1ccccc1` [Sofosbuvir], for which, for the setting “50 µM drug”, the “percent enzymatic activity, individual values” is 76.4977% and 78.341% and 81.5668%; the “percent enzymatic activity, AVG” value worked out at 78.8018%.
